By pIC50 is commonly meant the IC50 on a negative log10 scale, so that one unit is a factor of ten.

pIC50: −log10 of the molar value. A value given as a limit tells only on which side of the number the result lay.

Assay [1] concerns the target T1, Glycogen synthase kinase-3 beta (Homo sapiens, UniProt P49841). The assay can be described thus: Inhibition of human flag-tagged GSK3-beta expressed in HEK-MSRII cells assessed as CRMP-2 phosphorylation by alphaLISA assay. Format: cell-based. (Alpha assays give light when donor and acceptor beads are brought close together.)
The target in assay [2] is Cyclin-dependent kinase 2 (Homo sapiens, UniProt P24941). Put plainly: Inhibition of recombinant CDK2 expressed in baculovirus using […] by 33-P leadseeker assay.
In assay [3] the target is T1, Glycogen synthase kinase-3 beta. The assay can be described thus: Inhibition of human GSK3-beta expressed in baculovirus by fluorescence polarization assay. On the technique in general: In fluorescence polarisation assays a small probe gives low polarisation when free and higher when bound to something large.
The target is the same in assay [4]. The assay can be described thus: Inhibition of human full length His-tagged GSK3-beta expressed in baculovirus by alphaLISA assay.

T1 sequence (P49841 whole entry): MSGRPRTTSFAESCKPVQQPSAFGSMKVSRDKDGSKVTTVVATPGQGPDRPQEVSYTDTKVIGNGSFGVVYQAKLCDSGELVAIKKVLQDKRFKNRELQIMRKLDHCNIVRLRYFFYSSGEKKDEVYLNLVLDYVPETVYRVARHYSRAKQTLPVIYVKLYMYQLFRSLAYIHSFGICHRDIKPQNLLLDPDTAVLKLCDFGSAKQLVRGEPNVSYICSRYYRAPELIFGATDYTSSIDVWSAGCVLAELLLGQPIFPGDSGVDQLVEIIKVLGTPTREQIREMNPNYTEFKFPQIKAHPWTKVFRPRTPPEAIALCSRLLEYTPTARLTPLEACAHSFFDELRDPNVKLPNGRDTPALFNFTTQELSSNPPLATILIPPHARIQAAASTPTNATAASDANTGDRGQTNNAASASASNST

`CCOc1ccc(-c2c[nH]c(=O)c3cc(-c4ccncc4)sc23)cn1`: the values for the pIC50 in assay [1], in assay [2] and in assay [3] were 5.50, 5.20 and 6.90, respectively.
With `O=c1[nH]cc(-c2cccc(Cl)n2)c2sc(-c3ccncc3)cc12`, the negative-log IC50 (pIC50) in assay [1] was 5.40; in assay [2], < 4.80; in assay [3], 8.00.
Regarding `N#CCc1cccc(-c2c[nH]c(=O)c3cc(-c4ccncc4)sc23)c1`, the pIC50 was 6.20 in assay [1], 5.40 in assay [2] and 8.00 in assay [3].
As for `Cc1cc(-c2cc3c(=O)[nH]cc(-c4cccc(NS(C)(=O)=O)c4)c3s2)ccn1`, the values for the pIC50 in assay [1] and in assay [3] were < 4.00 and 5.60, respectively.
On to `O=c1[nH]cc(-c2ccc(N3CCOCC3)cc2)c2sc(-c3ccncc3)cc12`, for which the pIC50 is 5.90 in assay [1], 4.80 in assay [2], 7.20 in assay [4] and 6.30 in assay [3].
As to `COCc1ccccc1-c1c[nH]c(=O)c2cc(-c3ccncc3)sc12`, the pIC50 is 5.40 in assay [1], 5.30 in assay [2] and 7.00 in assay [3].
As for `Cn1cc(-c2ccc(N3CCOCC3)cc2)c2sc(-c3ccncc3)cc2c1=O`, the pIC50 in assay [1] is < 4.00; in assay [2] it was < 4.80; in assay [4], 6.60.
In the case of `CN(C)C(=O)c1ccccc1-c1c[nH]c(=O)c2cc(-c3ccncc3)sc12`, the pIC50 in assay [1] is 5.20; in assay [2], < 4.80; in assay [3], 6.50.
For `O=c1[nH]cc(-c2ccc(N3CCOCC3)cc2)c2sc(-c3cn[nH]c3)cc12`, the pIC50 in assay [1] is 6.40; in assay [2], 6.60; in assay [4], 7.90.
For `COc1ncc(-c2ccc(N3CCOCC3)cc2)c2sc(-c3ccncc3)cc12`, the results for the negative logarithm of the IC50 (pIC50) in assay [1], in assay [2] and in assay [4] were < 4.00, < 4.80 and 5.00, respectively.
As to `N#Cc1cscc1-c1c[nH]c(=O)c2cc(-c3ccncc3)sc12`, the figures for the pIC50 in assay [1], in assay [2] and in assay [3] were 6.50, 6.80 and 7.90, respectively.
Consider `CS(=O)(=O)Nc1cccc(-c2c[nH]c(=O)c3cc(-c4ccnc5[nH]ccc45)sc23)c1`, for which the pIC50 in assay [1] is < 4.00; in assay [2] it was 5.50; in assay [4], 7.70.
`O=c1[nH]cc(-c2ccc3c(c2)OCCO3)c2sc(-c3ccncc3)cc12`: the pIC50 in assay [1] is 6.20; in assay [2], 5.80; in assay [3] it was 8.20.
Consider `O=c1[nH]cc(-c2cccc3cccnc23)c2sc(-c3ccncc3)cc12`, for which the pIC50 was 5.10 in assay [1], 4.90 in assay [2] and 6.50 in assay [3].
Regarding `N#Cc1ccc(F)c(-c2c[nH]c(=O)c3cc(-c4ccncc4)sc23)c1`, the results for the negative-log IC50 (pIC50) in assay [1], in assay [2] and in assay [3] were 7.10, 6.70 and 8.30, respectively.
Take `COc1cc(F)ccc1-c1c[nH]c(=O)c2cc(-c3ccncc3)sc12`: the pIC50 in assay [1] was 5.30; in assay [2], 5.30; in assay [3] it was 6.80.

These data come from ChEMBL document CHEMBL1806471, “Identification of 2-(4-pyridyl)thienopyridinones as GSK-3β inhibitors” (Bioorg Med Chem Lett, 2011).
